Test results published in patent publication EP0199247A2, “Cytostatic active medicine containing glycidyl amines” (priority 1985, dated 1986).

Test system: Tumorart P 388 (Leukämie)
Assay: P 388 leukemia survival test in mice (NCI protocol 1200)
Type: in vivo, Mäusen
Conditions: i.p., 9-day treatment; for Verlängerungsrate T/C: P 388 i.p. 10^6 Zellen/Maus, untreated mean survival 10 days; for Zahl der Tiere aus jeweils einer Gruppe von 6 die 30 Tage überlebten: value in brackets, group of 6
Text: Die nachfolgenden Versuche wurden durchgeführt nach Tcstvorschriften des National Canccr Institute Bethesda, Maryland 200014, veröffentlicht in "Cancer Chemotherany Renorts" Part. 3, Sept. 1972, Vol. 3, Nr. 2. Als Wirksubstanz wurde Triglycidylamin sowie 3-Chlorpropyl-diglycidylamin des vorstehenden Beisniels 4 verwendet. Die Substanz wurde als wäßrige 1 %ige Injektionslösung unmittelbar vor der Applikation frisch hergestellt.
Bei Mäusen wurde gemäß Protokoll 1200 (S. 91 c) die Tumorart P 388 (Leukämie) i.p. mit 10^6 Zellen/Maus gesetzt. Die unbehandelten Tiere hatten eine mittlere Überlebensdauer von 10 Tagen.
Mit den behandelten Testtieren, die einer 9-tägigen i.p. Behandlung mit der in Tabelle 1 angesehenen Dosis unterworfen wurden, wurde eine signifikante Verlängerung der Lebensdauer gegenüber der mittleren Überlebensdauer der nicht mit dem Wirkstoff behandelten Tiere erzielt. Die Verlängerunzstate T/C in Abhängigkeit von der Dosierung des Wirkstoffes ist in der Tabelle 1 zusammengestellt. Die Werte in Klammern bedeuten die Zahl der Tiere aus jeweils einer Gruppe von 6 die 30 Tage üherlebten.

In the case of `ClCCCN(CC1CO1)CC1CO1` (stereo not drawn) [3-Chlorpropyl-diglycidylamin], the “Verlängerungsrate T/C” value (Dosis 1,87 mg/kg) is reported as 179%, the “Verlängerungsrate T/C” value (Dosis 3,75 mg/kg) is reported as 181% and the “Verlängerungsrate T/C” value (Dosis 7,50 mg/kg) is reported as 303%. The “Zahl der Tiere aus jeweils einer Gruppe von 6 die 30 Tage überlebten” value (Dosis 7,50 mg/kg) was 3.

In the case of `C1OC1CN(CC1CO1)CC1CO1` (stereo not drawn) [Triglycidylamin], the “Verlängerungsrate T/C” value (Dosis 0,48 mg/kg) is reported as 148%, the “Verlängerungsrate T/C” value (Dosis 0,97 mg/kg) is reported as 174% and the “Verlängerungsrate T/C” value (Dosis 1,87 mg/kg) is reported as 252%. The “Verlängerungsrate T/C” value (Dosis 3,75 mg/kg) was 303% and the “Zahl der Tiere aus jeweils einer Gruppe von 6 die 30 Tage überlebten” value (Dosis 3,75 mg/kg) was 6.
